# According to paper PMC3578047 (European journal of pharmacology, 2012):
# Structures can show the parent of a compound that is named as a salt.
# What was measured:
# [1] = tested on: naive rats; assay: rotorod motor skill test; settings: 3 mg/kg
# [2] = tested on: naive rats; assay: von Frey assay in the absence of a pain state; type: in vivo, rat; settings: for mechanical withdrawal thresholds in naive rats: 3 mg/kg
# [3] = tested on: lipopolysaccharide induced inflammatory pain (mechanical allodynia); type: in vivo, rat; settings: for effect on lipopolysaccharide induced allodynia over the dose range: s.c. 60 min prior to lipopolysaccharide, at 2 h
# [4] = tested on: plasma epoxyeicosatrienoic acids, dihydroxyeicosatrienoic acids, PGE2 and PGD2; assay: plasma oxylipin analysis in the inflammatory pain model; type: in vivo, rat; settings: 2 h post lipopolysaccharide
# [5] = ref Liu et al., 2009; cited from earlier work
# [6] = cynomolgus monkey; ref Ulu et al., 2011; cited from earlier work
# [7] = ref Liu 2009; cited from earlier work
# [8] = tested on: streptozocin induced type I diabetic neuropathic pain (mechanical allodynia); type: in vivo, rat; settings: for anti-allodynic effect over the time course versus vehicle: 15 min to 6 h; for effect on neuropathic allodynia versus vehicle: 10 mg/kg s.c., over 6 h time course
# [9] = tested on: human sEH; settings: read-out: IC50 Human, fluorescent assay, ref Hwang 2007; cited from earlier work
# [10] = plasma pharmacokinetics in rat; type: in vivo; settings: low dose, mean plasma AUC (S2)
# [11] = experimental logP; settings: determined experimentally as described by Tsai et al. 2010
# [12] = 3 mg/kg s.c. 60 min prior to lipopolysaccharide
compound,measurement,setting,value
"CN1CC[C@]23c4c5ccc(O)c4O[C@H]2[C@@H](O)C=C[C@H]3[C@H]1C5 [morphine, Morphine sulfate, reference compound]",rotorod performance versus vehicle controls,[1],no significant effect on rotorod performance
same,mechanical withdrawal thresholds in naive rats,[2],significant increase in mechanical withdrawal thresholds
"CC(=O)N1CCC(NC(=O)NC23CC4CC(CC(C4)C2)C3)CC1 [APAU, 1-(1-acetypiperidin-4-yl)-3-adamantanylurea]",effect of oral gavage dose compared to s.c. dose,"[3]; 3 mg/kg oral gavage in PEG400, 1 h prior to lipopolysaccharide",equaled the maximal effect of the s.c. dose
same,earliest time point at which pain was blocked,[3]; [12],15 min
same,effect over the time course versus vehicle control,[3]; [12],significant versus vehicle control over the time course
same,effect on lipopolysaccharide induced allodynia over the dose range,[3],All doses of APAU except 0.1 mg/kg significantly blocked the lipopolysaccharide induced allodynia
same,plasma PGE2 and PGD2 versus lipopolysaccharide + vehicle,[4]; 3 mg/kg,reduced both prostaglandins significantly
same,plasma PGE2 and PGD2 versus lipopolysaccharide + vehicle,[4]; 100 mg/kg,did not significantly decrease PGE2 and PGD2 levels
same,sum dihydroxyeicosatrienoic acids in plasma versus vehicle controls,[4]; 3 and 100 mg/kg,significantly lowered dihydroxyeicosatrienoic acids
same,sum epoxyeicosatrienoic acids in plasma versus vehicle controls,[4]; 3 and 100 mg/kg,did not significantly alter sum epoxyeicosatrienoic acids levels
same,mechanical withdrawal thresholds in naive rats,[2],showed no effect in the assay
same,nociceptive thresholds in absence of pain state versus vehicle,[2]; 100 mg/kg,did not significantly alter the nociceptive thresholds
same,plasma half-life,[5],relatively short plasma half-life
same,plasma protein binding,[6],35.5%
same,Water Solubility,[7],310 ±60 mg/L^b
same,duration of anti-nociception,"[8]; 3 mg/kg s.c., diabetic rats",up to 5 h
same,time of first anti-allodynic effect,"[8]; 3 mg/kg s.c., diabetic rats",15 min
same,anti-allodynic effect over the time course versus vehicle,"[8]; 3 mg/kg s.c., diabetic rats",blocked allodynia by the first measurement at 15 minutes
same,effect on neuropathic allodynia versus vehicle,[8]; diabetic rats,significantly decreased allodynia
same,most effective dose against allodynia,"[8]; s.c., dose range 0.1-100 mg/kg, at 2 h",3 mg/kg
"O=C(NC12CC3CC(CC(C3)C1)C2)N[C@H]1CC[C@H](Oc2ccc(C(=O)O)cc2)CC1 [t-AUCB, trans-4-[4-(3-adamantan-1-yl-ureido)-cyclohexyloxy]-benzoic acid]",IC50,[9],[…]
same,effect over the time course versus vehicle control,[3]; [12],lacked a significance versus vehicle control over the time course
same,effect on lipopolysaccharide induced allodynia over the dose range,[3],significantly blocked pain related behavior only at the two highest doses 30 and 100 mg/kg
same,anti-allodynic effect over the time course versus vehicle,"[8]; 3 mg/kg s.c., diabetic rats",significant versus vehicle control over the time course but overall the effect was brief
same,only dose with significant anti-allodynic effect,"[8]; s.c., dose range 1-100 mg/kg, at 2 h",100 mg/kg
"Cc1ccc(-c2cc(C(F)(F)F)nn2-c2ccc(S(N)(=O)=O)cc2)cc1 [celecoxib, reference compound]",effect on lipopolysaccharide induced allodynia,"[3]; 10 mg/kg, 1 h prior to intraplantar lipopolysaccharide, over 6 h time course",marginal effect at the 3 hour time point
same,effect on neuropathic allodynia versus vehicle,[8]; diabetic rats,no significant effect on the neuropathic allodynia
"O=C(Nc1cccc(OC(F)(F)F)c1)N[C@H]1CC[C@H](Oc2ccc(C(=O)O)cc2)CC1 [t-TUCB, trans-4-[4-(3-trifluoromethoxyphenyl-l-ureido)-cyclohexyloxy]-benzoic acid]",IC50,[9],0.9 nM
same,overall pharmacokinetics in rats,[10],best overall pharmacokinetics at low dose
same,eLogP,[11],1.6
same,plasma protein binding,[6],99%
same,anti-allodynic effect over the time course versus vehicle,"[8]; 3 mg/kg s.c., diabetic rats",significantly effective versus vehicle control over the time course but was delayed and less active when compared to APAU
same,mechanical withdrawal thresholds,"[8]; 10 mg/kg, diabetic rats, early time points (Fig. S1, Table S3)",increased mechanical withdrawal thresholds to pre-diabetic pain free scores at early time points
same,"dose of maximal response, the only significant dose","[8]; s.c., dose range 0.1-100 mg/kg, at 3 h",10 mg/kg
